Tests used:
Settings in all cases: binder
CK1e = CK1e (Homo sapiens, UniProt P49674)
EphA4 = EphA4 (Homo sapiens, UniProt P54764)
MAP2K7 = biological target: T1, MAP2K7 (Homo sapiens, UniProt O14733)
T1 sequence (O14733 1-419): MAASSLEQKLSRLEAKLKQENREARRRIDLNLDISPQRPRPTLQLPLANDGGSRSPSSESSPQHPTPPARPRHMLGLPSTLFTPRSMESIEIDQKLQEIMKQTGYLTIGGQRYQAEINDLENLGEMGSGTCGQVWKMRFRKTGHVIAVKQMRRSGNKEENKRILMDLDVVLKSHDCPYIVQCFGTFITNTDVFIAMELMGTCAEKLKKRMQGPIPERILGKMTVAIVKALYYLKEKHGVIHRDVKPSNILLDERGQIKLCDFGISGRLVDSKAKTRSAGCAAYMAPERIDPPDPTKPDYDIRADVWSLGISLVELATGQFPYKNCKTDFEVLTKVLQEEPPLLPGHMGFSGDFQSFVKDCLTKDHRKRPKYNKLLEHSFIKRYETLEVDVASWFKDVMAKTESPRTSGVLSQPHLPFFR

Erk7 = biological target: T2, Erk7 (Homo sapiens, UniProt Q8TD08)
T2 sequence (Q8TD08 1-544): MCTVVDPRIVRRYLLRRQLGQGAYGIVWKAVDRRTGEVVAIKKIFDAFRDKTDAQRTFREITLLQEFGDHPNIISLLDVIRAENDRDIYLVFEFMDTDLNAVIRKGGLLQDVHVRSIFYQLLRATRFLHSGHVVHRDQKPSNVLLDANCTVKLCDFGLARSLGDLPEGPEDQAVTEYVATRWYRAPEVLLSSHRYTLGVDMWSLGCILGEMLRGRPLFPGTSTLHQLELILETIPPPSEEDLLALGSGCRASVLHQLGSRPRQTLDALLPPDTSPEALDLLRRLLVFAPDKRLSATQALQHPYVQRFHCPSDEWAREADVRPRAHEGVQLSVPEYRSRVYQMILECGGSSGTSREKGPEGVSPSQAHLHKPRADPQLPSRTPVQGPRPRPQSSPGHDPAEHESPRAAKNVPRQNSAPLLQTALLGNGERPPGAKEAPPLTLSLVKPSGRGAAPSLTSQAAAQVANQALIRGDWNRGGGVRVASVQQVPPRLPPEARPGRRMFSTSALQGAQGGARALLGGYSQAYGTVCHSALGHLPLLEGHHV

JNK3 = JNK3 (Homo sapiens, UniProt P53779)
Sequence of JNK3 (P53779 whole entry): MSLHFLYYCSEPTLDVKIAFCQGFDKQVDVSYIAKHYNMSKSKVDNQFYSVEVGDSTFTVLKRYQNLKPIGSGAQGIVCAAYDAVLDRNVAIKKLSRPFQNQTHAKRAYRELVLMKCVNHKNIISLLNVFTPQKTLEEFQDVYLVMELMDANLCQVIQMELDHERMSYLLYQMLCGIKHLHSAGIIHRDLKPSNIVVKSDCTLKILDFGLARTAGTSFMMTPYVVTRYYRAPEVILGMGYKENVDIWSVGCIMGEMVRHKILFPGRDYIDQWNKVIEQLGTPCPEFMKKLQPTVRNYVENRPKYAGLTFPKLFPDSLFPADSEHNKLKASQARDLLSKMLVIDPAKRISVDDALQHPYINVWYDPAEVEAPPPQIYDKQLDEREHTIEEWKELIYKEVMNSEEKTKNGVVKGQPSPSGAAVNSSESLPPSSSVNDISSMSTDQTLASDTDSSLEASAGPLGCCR

MYT1 = biological target: T3, MYT1 (Homo sapiens, UniProt Q99640)
T3 sequence (Q99640 1-499): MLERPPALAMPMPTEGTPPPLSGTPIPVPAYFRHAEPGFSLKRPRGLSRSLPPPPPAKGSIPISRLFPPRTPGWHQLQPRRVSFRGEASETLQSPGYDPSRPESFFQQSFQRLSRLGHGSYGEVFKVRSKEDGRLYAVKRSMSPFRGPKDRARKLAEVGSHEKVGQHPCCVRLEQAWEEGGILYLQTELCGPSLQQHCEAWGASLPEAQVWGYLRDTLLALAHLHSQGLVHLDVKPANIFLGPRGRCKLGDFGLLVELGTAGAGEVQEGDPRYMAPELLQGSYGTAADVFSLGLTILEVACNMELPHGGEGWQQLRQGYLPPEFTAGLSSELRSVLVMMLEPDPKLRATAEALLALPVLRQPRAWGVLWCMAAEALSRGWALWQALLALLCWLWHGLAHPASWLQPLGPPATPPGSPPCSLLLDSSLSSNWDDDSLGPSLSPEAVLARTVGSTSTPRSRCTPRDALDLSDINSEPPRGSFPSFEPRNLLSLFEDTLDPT

Sequence of CK1e (P49674 whole entry): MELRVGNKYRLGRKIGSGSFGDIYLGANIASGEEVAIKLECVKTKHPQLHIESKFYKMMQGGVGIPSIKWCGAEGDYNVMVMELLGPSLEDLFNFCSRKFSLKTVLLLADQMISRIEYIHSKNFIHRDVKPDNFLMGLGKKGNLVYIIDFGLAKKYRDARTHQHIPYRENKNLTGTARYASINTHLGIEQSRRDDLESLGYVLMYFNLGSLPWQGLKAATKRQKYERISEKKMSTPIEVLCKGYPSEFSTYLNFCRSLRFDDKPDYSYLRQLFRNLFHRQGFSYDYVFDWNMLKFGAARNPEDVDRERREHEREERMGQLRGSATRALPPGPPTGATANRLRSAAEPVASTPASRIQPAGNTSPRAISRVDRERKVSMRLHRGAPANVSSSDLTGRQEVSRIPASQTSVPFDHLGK
Sequence of EphA4 (P54764 whole entry): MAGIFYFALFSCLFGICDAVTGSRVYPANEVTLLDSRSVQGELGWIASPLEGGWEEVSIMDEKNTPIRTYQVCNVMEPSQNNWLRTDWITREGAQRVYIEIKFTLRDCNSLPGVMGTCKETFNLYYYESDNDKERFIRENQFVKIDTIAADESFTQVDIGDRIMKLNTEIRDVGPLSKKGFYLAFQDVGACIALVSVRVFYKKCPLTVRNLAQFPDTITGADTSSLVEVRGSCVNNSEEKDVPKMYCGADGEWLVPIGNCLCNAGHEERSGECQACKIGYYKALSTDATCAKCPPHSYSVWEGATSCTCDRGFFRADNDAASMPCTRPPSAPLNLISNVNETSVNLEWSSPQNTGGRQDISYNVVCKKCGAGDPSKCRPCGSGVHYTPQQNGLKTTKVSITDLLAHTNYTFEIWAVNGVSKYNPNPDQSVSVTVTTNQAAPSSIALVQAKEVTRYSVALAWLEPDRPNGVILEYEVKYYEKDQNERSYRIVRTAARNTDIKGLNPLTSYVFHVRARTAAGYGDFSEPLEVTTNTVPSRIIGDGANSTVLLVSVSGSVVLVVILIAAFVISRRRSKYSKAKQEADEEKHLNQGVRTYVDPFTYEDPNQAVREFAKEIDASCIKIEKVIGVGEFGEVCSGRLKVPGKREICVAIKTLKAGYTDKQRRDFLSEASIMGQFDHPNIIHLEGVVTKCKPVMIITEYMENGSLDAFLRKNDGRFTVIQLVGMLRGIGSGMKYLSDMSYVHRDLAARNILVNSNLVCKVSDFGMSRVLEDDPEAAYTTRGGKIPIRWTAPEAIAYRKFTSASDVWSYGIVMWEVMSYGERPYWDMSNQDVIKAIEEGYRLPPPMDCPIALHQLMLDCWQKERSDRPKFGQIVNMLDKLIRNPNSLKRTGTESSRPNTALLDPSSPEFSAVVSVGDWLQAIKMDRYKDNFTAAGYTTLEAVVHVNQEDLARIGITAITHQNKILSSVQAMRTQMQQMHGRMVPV

## CNc1ncc2cc(-c3ccc(-c4cccc(C)n4)cc3Cl)c(=O)n(CCC3CCNCC3)c2n1 [compound 22, 6-(2-Chloro-4-(6-methylpyridin-2-yl)phenyl)-2-(methylamino)-8-(2-(piperidin-4-yl)ethyl)pyrido[2,3-d]pyrimidin-7(8H)-one]
CK1e
  ΔTm 22: 6.8 °C
EphA4
  ΔTm 22: 2.5 °C
MAP2K7
  ΔTm 22: 4.3 °C

## CNc1ncc2cc(-c3ccc(-c4cccc(C)n4)cc3Cl)c(=O)n(C[C@H]3CC[C@H](N)CC3)c2n1 [compound 23, 23]
EphA4
  ΔTm 23: 2.9 °C
MAP2K7
  ΔTm 23: 7.1 °C

## Cc1cccc(-c2ccc(-c3cc4cnc(NC(CO)CO)nc4n(CCCCN)c3=O)c(Cl)c2)n1 [compound 24, 8-(4-Aminobutyl)-6-(2-chloro-4-(6-methylpyridin-2-yl)phenyl)-2-((1,3-dihydroxypropan-2-yl)amino)pyrido[2,3-d]pyrimidin-7(8H)-one]
CK1e
  ΔTm MR24 (24): 6.4 °C
EphA4
  ΔTm MR24 (24): -0.3 °C
MAP2K7
  ΔTm MR24 (24): 3.0 °C

## Cc1cccc(-c2ccc(-c3cc4cnc(NCCCc5ccc(N)cc5)nc4n(CCCCN)c3=O)c(Cl)c2)n1 [compound 25, 8-(4-Aminobutyl)-2-((3-(4-aminophenyl)propyl)amino)-6-(2-chloro-4-(6-methylpyridin-2-yl)phenyl)pyrido[2,3-d]pyrimidin-7(8H)-one]
CK1e
  ΔTm 25: 8.0 °C
EphA4
  ΔTm 25: 1.8 °C
MAP2K7
  ΔTm 25: 6.7 °C

## Cc1cccc(-c2ccc(-c3cc4cnc(NCCCN5CCOCC5)nc4n(CCCCN)c3=O)c(Cl)c2)n1 [compound 26, MR26]
CK1e
  ΔTm MR26 (26): 7.3 °C
EphA4
  ΔTm MR26 (26): 2.5 °C
MAP2K7
  ΔTm MR26 (26): 3.1 °C

## Cc1cccc(-c2ccc(-c3cc4cnc(NCCCN5CCCC5=O)nc4n(CCCCN)c3=O)c(Cl)c2)n1 [compound 27, MR30]
Erk7
  ΔTm MR30 (27): -0.4 °C
JNK3
  ΔTm MR30 (27): 1.7 °C
MYT1
  ΔTm MR30 (27): -2.8 °C

## Cc1cccc(-c2ccc(-c3cc4cnc(Nc5cc(C(F)(F)F)ccc5C)nc4n(CCCCN)c3=O)c(Cl)c2)n1 [compound 28, 8-(4-Aminobutyl)-6-(2-chloro-4-(6-methylpyridin-2-yl)phenyl)-2-((2-methyl-5-(trifluoromethyl)phenyl)amino)pyrido[2,3-d]pyrimidin-7(8H)-one]
Erk7
  ΔTm 28: 0.5 °C
JNK3
  ΔTm 28: 3.5 °C
MYT1
  ΔTm 28: -4.3 °C

## Cc1cccc(-c2ccc(-c3cc4cnc(NCCCN5CCNCC5)nc4n(CCCCN)c3=O)c(Cl)c2)n1 [compound 29, 8-(4-Aminobutyl)-6-(2-chloro-4-(6-methylpyridin-2-yl)phenyl)-2-((3-(piperazin-1-yl)propyl)amino)pyrido[2,3-d]pyrimidin-7(8H)-one]
Erk7
  ΔTm 29: 0.1 °C
JNK3
  ΔTm 29: 0.8 °C
MYT1
  ΔTm 29: -0.9 °C

## Cc1cccc(-c2ccc(-c3cc4cnc(Nc5ccc(CCCO)cc5)nc4n(CCCCN)c3=O)c(Cl)c2)n1 [compound 30, 8-(4-Aminobutyl)-6-(2-chloro-4-(6-methylpyridin-2-yl)phenyl)-2-((4-(3-hydroxypropyl)phenyl)amino)pyrido[2,3-d]pyrimidin-7(8H)-one]
Erk7
  ΔTm 30: 1.2 °C
JNK3
  ΔTm 30: 4.6 °C
MYT1
  ΔTm 30: -2.8 °C

## Cc1cccc(-c2ccc(-c3cc4cnc(Nc5ccc(O)cc5)nc4n(CCCCN)c3=O)c(Cl)c2)n1 [compound 31, 8-(4-Aminobutyl)-6-(2-chloro-4-(6-methylpyridin-2-yl)phenyl)-2-((4-hydroxyphenyl)amino) pyrido[2,3-d]pyrimidin-7(8H)-one]
Erk7
  ΔTm 31: 1.4 °C
JNK3
  ΔTm 31: 4.7 °C
MYT1
  ΔTm 31: -2.3 °C

## Cc1cccc(-c2ccc(-c3cc4cnc(Nc5ccc(C)c(O)c5)nc4n(CCCCN)c3=O)c(Cl)c2)n1 [compound 32, 8-(4-Aminobutyl)-6-(2-chloro-4-(6-methylpyridin-2-yl)phenyl)-2-((3-hydroxy-4-methylphenyl)amino)pyrido[2,3-d]pyrimidin-7(8H)-one]
Erk7
  ΔTm 32: 1.0 °C
JNK3
  ΔTm 32: 4.5 °C
MYT1
  ΔTm 32: -2.6 °C

— article doi:10.1101/2023.11.24.568596v1 (biorxiv, 2023)
